According to PubChem BioAssay AID1963450 (Molecular Pharmacology Branch, DTP, NCI, 2024):
“And” between values parts separate entries of the source, which are not always exact repeats. Identical values can stand only once.

Tested on: 556581-035-R-J1-PDC complex spheroid growth
Assay: Anticancer human tumor 556581-035-R-J1-PDC patient-derived ovarian carcinoma cell line growth inhibition [Asc]
Settings: for viability, T/C: stronger effect = lower value
How it was run: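 Tumor cells were grown as complex spheroids with human endothelial cells (HUVEC) and human mesenchymal stem cells as stroma. Agents were tested alone and in combination, in half-log steps down from the clinical Cmax, or from 10 microM where Cmax was unknown.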
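Further: spheroids exposed to agents for 7 days before viability read.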

Work on `CNC(C)C(=O)NC1CN(S(=O)(=O)c2cccc(S(=O)(=O)N3CCC4CCC(C(=O)NC(c5ccccc5)c5ccccc5)N4C(=O)C(NC(=O)C(C)NC)C3)c2)CCC2CCC(C(=O)NC(c3ccccc3)c3ccccc3)N2C1=O` (stereo not drawn) + CCN1C(C(=O)NC23CCC(C(=O)O)(CC2)CC3)C(c2cccc(Cl)c2F)C2(C(=O)Nc3cc(Cl)ccc32)C12CCCCC2 yielded an IC50 (curve of first compound, second compound 0.03 µM) greater than 1 µM, an IC50 (curve of first compound, second compound 0.0949 µM) greater than 1 µM and an IC50 (curve of first compound, second compound 0.3 µM) greater than 1 µM. For the same compound, the IC50 (curve of first compound, second compound 0.949 µM) was greater than 1 µM, the IC50 (curve of first compound, second compound 3 µM) was greater than 1 µM and the viability, T/C (second compound 0.03 µM, first compound 0.00316 µM) was 94.8%. The viability, T/C (second compound 0.03 µM, first compound 0.01 µM) was 82.8%, the viability, T/C (second compound 0.03 µM, first compound 0.0316 µM) was 97.9% and the viability, T/C (second compound 0.03 µM, first compound 0.1 µM) was 76.4%. The viability, T/C (second compound 0.03 µM, first compound 0.316 µM) was 61.8%, the viability, T/C (second compound 0.03 µM, first compound 1 µM) was 54.3% and the viability, T/C (second compound 0.0949 µM, first compound 0.00316 µM) was 88.3%. For the same compound, the viability, T/C (second compound 0.0949 µM, first compound 0.01 µM) was 98.8%, the viability, T/C (second compound 0.0949 µM, first compound 0.0316 µM) was 87% and the viability, T/C (second compound 0.0949 µM, first compound 0.1 µM) was 76.8%. It also gave a viability, T/C (second compound 0.0949 µM, first compound 0.316 µM) of 65.6%, a viability, T/C (second compound 0.0949 µM, first compound 1 µM) of 60.5% and a viability, T/C (second compound 0.3 µM, first compound 0.00316 µM) of 108%. It also gave a viability, T/C (second compound 0.3 µM, first compound 0.01 µM) of 97.5%, a viability, T/C (second compound 0.3 µM, first compound 0.0316 µM) of 106% and a viability, T/C (second compound 0.3 µM, first compound 0.1 µM) of 77.3%. The viability, T/C (second compound 0.3 µM, first compound 0.316 µM) was 73%, the viability, T/C (second compound 0.3 µM, first compound 1 µM) was 57.1% and the viability, T/C (second compound 0.949 µM, first compound 0.00316 µM) was 85.5%. It also gave a viability, T/C (second compound 0.949 µM, first compound 0.01 µM) of 81.2%, a viability, T/C (second compound 0.949 µM, first compound 0.0316 µM) of 93.9% and a viability, T/C (second compound 0.949 µM, first compound 0.1 µM) of 66.8%. The viability, T/C (second compound 0.949 µM, first compound 0.316 µM) was 65.1%, the viability, T/C (second compound 0.949 µM, first compound 1 µM) was 65.5% and the viability, T/C (second compound 3 µM, first compound 0.00316 µM) was 105%. The viability, T/C (second compound 3 µM, first compound 0.01 µM) was 94.6%, the viability, T/C (second compound 3 µM, first compound 0.0316 µM) was 78.7% and the viability, T/C (second compound 3 µM, first compound 0.1 µM) was 70.8%. It also gave a viability, T/C (second compound 3 µM, first compound 0.316 µM) of 63.3% and a viability, T/C (second compound 3 µM, first compound 1 µM) of 60.5%.

`CCN1C(C(=O)NC23CCC(C(=O)O)(CC2)CC3)C(c2cccc(Cl)c2F)C2(C(=O)Nc3cc(Cl)ccc32)C12CCCCC2` (stereo not drawn) was tested, and the viability, T/C (compound 0.00949 µM) was 95.4% and 108%, the IC50 (compound alone, run of 10/11/2022) was greater than 3 µM and the IC50 (curve of compound) was greater than 3 µM.

`CCN1C(C(=O)NC23CCC(C(=O)O)(CC2)CC3)C(c2cccc(Cl)c2F)C2(C(=O)Nc3cc(Cl)ccc32)C12CCCCC2` (stereo not drawn) + CNC(C)C(=O)NC1CN(S(=O)(=O)c2cccc(S(=O)(=O)N3CCC4CCC(C(=O)NC(c5ccccc5)c5ccccc5)N4C(=O)C(NC(=O)C(C)NC)C3)c2)CCC2CCC(C(=O)NC(c3ccccc3)c3ccccc3)N2C1=O showed an IC50 (curve of first compound, second compound 0.01 µM) greater than 3 µM, an IC50 (curve of first compound, second compound 0.0316 µM) greater than 3 µM and an IC50 (curve of first compound, second compound 0.1 µM) greater than 3 µM. For the same compound, the IC50 (curve of first compound, second compound 0.316 µM) was greater than 3 µM, the IC50 (curve of first compound, second compound 1 µM) was greater than 3 µM and the viability, T/C (second compound 0.01 µM, first compound 0.00949 µM) was 82.8%. For the same compound, the viability, T/C (second compound 0.01 µM, first compound 0.03 µM) was 98.8%, the viability, T/C (second compound 0.01 µM, first compound 0.0949 µM) was 97.1% and the viability, T/C (second compound 0.01 µM, first compound 0.3 µM) was 86.2%. For the same compound, the viability, T/C (second compound 0.01 µM, first compound 0.949 µM) was 92.2%, the viability, T/C (second compound 0.01 µM, first compound 3 µM) was 86.9% and the viability, T/C (second compound 0.0316 µM, first compound 0.00949 µM) was 83.2%. For the same compound, the viability, T/C (second compound 0.0316 µM, first compound 0.03 µM) was 85.7%, the viability, T/C (second compound 0.0316 µM, first compound 0.0949 µM) was 82.3% and the viability, T/C (second compound 0.0316 µM, first compound 0.3 µM) was 87.8%. It also gave a viability, T/C (second compound 0.0316 µM, first compound 0.949 µM) of 91.2%, a viability, T/C (second compound 0.0316 µM, first compound 3 µM) of 102% and a viability, T/C (second compound 0.1 µM, first compound 0.00949 µM) of 79%. The viability, T/C (second compound 0.1 µM, first compound 0.03 µM) was 88.9%, the viability, T/C (second compound 0.1 µM, first compound 0.0949 µM) was 84.3% and the viability, T/C (second compound 0.1 µM, first compound 0.3 µM) was 67.7%. The viability, T/C (second compound 0.1 µM, first compound 0.949 µM) was 90%, the viability, T/C (second compound 0.1 µM, first compound 3 µM) was 90.3% and the viability, T/C (second compound 0.316 µM, first compound 0.00949 µM) was 77.1%. It also gave a viability, T/C (second compound 0.316 µM, first compound 0.03 µM) of 78.9%, a viability, T/C (second compound 0.316 µM, first compound 0.0949 µM) of 77.6% and a viability, T/C (second compound 0.316 µM, first compound 0.3 µM) of 84.9%. It also gave a viability, T/C (second compound 0.316 µM, first compound 0.949 µM) of 73.4%, a viability, T/C (second compound 0.316 µM, first compound 3 µM) of 69.7% and a viability, T/C (second compound 1 µM, first compound 0.00949 µM) of 71.5%. The viability, T/C (second compound 1 µM, first compound 0.03 µM) was 72.5%, the viability, T/C (second compound 1 µM, first compound 0.0949 µM) was 65.9% and the viability, T/C (second compound 1 µM, first compound 0.3 µM) was 68.4%. It also gave a viability, T/C (second compound 1 µM, first compound 0.949 µM) of 68% and a viability, T/C (second compound 1 µM, first compound 3 µM) of 72.4%.
